This note sets out measurements from patent publication US20230310540A1, “PEPTIDE COMPOSITIONS AND METHODS OF USE THEREOF” (priority 2020, published 2023).

In test [1] the test system is Acinetobacter baumannii (PDR). The test is described as follows: Broth dilution MIC against pan drug-resistant A. baumannii isolate. The note with it: isolate AB (PDR). The format is cell-based. (Broth dilution looks for growth in wells or tubes with falling amounts of substance.)
The subject of test [2] is Methicillin-resistant Staphylococcus aureus (SAP400). Nature of the test: Broth dilution MIC against MRSA isolate. The format is cell-based.
In test [3] the test system is Klebsiella pneumoniae clinical isolates.
Test [4] has as its system Pseudomonas aeruginosa (CF mucoid and non-mucoid). Nature of the test: Broth dilution MIC against P. aeruginosa isolates from cystic fibrosis patients. The test is classed as cell-based.
Where [5] appears, read: isolate KP (Morici), ATCC #33495.

Values after ≈ are worked out from the molar mass of the structure shown. Read-outs that look alike come from different tables or passages of the source. Bounds are passed on as bounds.

Regarding `C[C@@H](O)[C@H]1C(=O)N2C(C(=O)O)=C(S[C@@H]3CN[C@H](C(=O)N(C)C)C3)[C@H](C)[C@H]12` [MEM, Meropenem], the minimal inhibitory concentration (MIC) in test [1] is >150 µM; in test [2], >150 µM; in test [3] (isolate KP 2146 (NDM-1)), >150 µM; in test [3] (isolate KP (6)), 0.2 µM (≈ 0.0767 µg/mL); in test [3] (isolate KP (46)) it was 0.4 µM (≈ 0.153 µg/mL); in test [3] (isolate KP (398)), 0.2 µM (≈ 0.0767 µg/mL). Besides, the MIC was 108.3 µM (≈ 41.5 µg/mL) in test [3] (isolate KP (CRE)); 0.2 µM (≈ 0.0767 µg/mL) in test [3] (setting [5]); >150 µM in test [3] (isolate KP (ST258C3)); >150 µM in test [3] (isolate KP (ST258I2)); 0.3 µM (≈ 0.115 µg/mL) in test [3] (isolate KP (ST396)); >150 µM in test [3] (isolate KP (St258 C2)). The MIC in test [4] (isolate PA (mucoid)) was determined as 13.3 µM (≈ 5.1 µg/mL); in test [4] (isolate PA (non-mucoid)), 4 µM (≈ 1.53 µg/mL).
For Gentamicin, the MIC in test [1] is >150 µM; in test [2], >150 µM; in test [3] (isolate KP 2146 (NDM-1)) it was >150 µM; in test [3] (isolate KP (6)), >150 µM; in test [3] (isolate KP (46)), 1.6 µM; in test [3] (isolate KP (398)) it was 1.9 µM. The MIC in test [3] (isolate KP (CRE)) was 5.2 µM; in test [3] (setting [5]) it was 1.9 µM; in test [3] (isolate KP (ST258C3)), >150 µM; in test [3] (isolate KP (ST258I2)), 8.3 µM; in test [3] (isolate KP (ST396)), 2 µM; in test [3] (isolate KP (St258 C2)), >150 µM. Further, the MIC in test [4] (isolate PA (mucoid)) was 5.5 µM; in test [4] (isolate PA (non-mucoid)), 8.3 µM.

As usually defined, the MIC is the lowest concentration that inhibits growth of the organism. A higher MIC goes with a need for much substance.
